# Data taken from patent US6313090A, “Methods for treating parasitic infection using thiopeptides” (The United States of America as represented by the …, priority 2000, dated 2001).
# System: MDBKF5D2 cell monolayers
# Assay: Toxicity testing assay (MTS/PMS, OD 490 nm)
# Assay type: cell-based
# Method: (§1) Toxicity Testing Assay. 200 μl of medium containing drug at the above-mentioned concentrations and positive control preparations [paromomycin/DMSO (2 mg/ml/0.2%)] were introduced into two wells of a 96 well plate containing confluent MDBKF5D2 cell monolayers (ATCC accession number CCL-22) infected with intact C. parvum GCH1 oocysts (5.0×10^4 per well) (43) and two wells without monolayers. The drug was incubated on the monolayers at 37° C. and 8% CO2. At 48 hours, MTS (Owen's solution) and PMS were added to each well at concentrations of 333 μg/ml and 25 μM respectively. The plate was returned to the incubator in the dark to develop for two hours. At two hours, 100 μl of each supernatant was transferred to a new microtiter plate and the optical density (OD) was read in an ELISA plate reader at 490 nm.
# (§2) Percent toxicity was calculated by subtracting the mean drug OD from the medium OD, divided by the medium OD, all of which was then multiplied by 100, as shown in the equation below. Cytotoxicity scores were assigned as follows: 0-5% toxicity=0, 6-25% toxicity=1, 26-50% toxicity=2, 51-75% toxicity=3, and 76-100% toxicity=4. As a standard, cytotoxicity scores of 0 or, 1 were considered acceptable levels of toxicity. Toxicity scores of 2, 3, or 4 were considered as high levels of toxicity to the cell monolayer. [formula]
# as §1, with “containing drugs” for “containing drug”, “monolayers” for “monolayers (ATCC accession number CCL-22)”, “well)” for “well) (43)”, “and 25μM” for “and 25 μM”
# as §2, with “or” for “or,”
# as §1, with “monolayers” for “monolayers (ATCC accession number CCL-22)”, “well)” for “well) (43)”, “25μM” for “25 μM”
# [1] = Table 2, 2 mg/ml, listed as PRM/DMSO
# [2] = Table 4 Washed at 4 hours, 250 μg/ml
# [3] = Table 4 Washed at 4 hours, 500 μg/ml
# [4] = Table 4 Washed at 4 hours, 1000 μg/ml
# [5] = Table 4 Washed at 4 hours, 2000 μg/ml
# [6] = Table 5, 2000 μg/ml, drug added at 0 hrs
# [7] = Table 5, 2000 μg/ml, drug added at 2 hrs
# [8] = Table 5, 2000 μg/ml, drug added at 4 hrs
# [9] = Table 5, 2000 μg/ml, drug added at 8 hrs
# [10] = Table 5, 2000 μg/ml, drug added at 24 hrs
# [11] = Table 4 Washed at 4 hours, 100 μg/ml
# [12] = Table 4 Washed at 4 hours, 200 μg/ml
# [13] = Table 4 Washed at 4 hours, 400 μg/ml
# [14] = Table 4 Washed at 4 hours, 800 μg/ml
# [15] = Table 5, 800 μg/ml, drug added at 0 hrs
# [16] = Table 5, 800 μg/ml, drug added at 2 hrs
# [17] = Table 5, 800 μg/ml, drug added at 4 hrs
# [18] = Table 5, 800 μg/ml, drug added at 8 hrs
# [19] = Table 5, 800 μg/ml, drug added at 24 hrs
smiles,measurement,setting,value
"NC[C@@H]1O[C@H](O[C@H]2[C@@H](O)[C@H](O[C@@H]3[C@@H](O)[C@H](N)C[C@H](N)[C@H]3O[C@H]3O[C@H](CO)[C@@H](O)[C@H](O)[C@H]3N)O[C@@H]2CO)[C@H](N)[C@@H](O)[C@@H]1O [PRM, paromomycin]",Tox. O.D.,"Table 1, 2000 μg/ml",.868
same,Toxicity Percent,"Table 1, 2000 μg/ml",21.09%
same,Toxicity Score,"Table 1, 2000 μg/ml",1 (6-25% toxicity=1)
same,Tox. O.D.,"Table 2, 2 mg/ml",.954
same,Toxicity Percent,"Table 2, 2 mg/ml",-4.38%
same,Toxicity Score,"Table 2, 2 mg/ml",0 (0-5% toxicity=0)
same,Tox. O.D.,[1],.963
same,Toxicity Percent,[1],4.37%
same,Tox. O.D.,"Table 3 Unwashed, 250 μg/ml",1.121
same,Toxicity Percent,"Table 3 Unwashed, 250 μg/ml",-7.53%
same,Toxicity Score,"Table 3 Unwashed, 250 μg/ml",0 (0-5% toxicity=0)
same,Tox. O.D.,"Table 3 Unwashed, 500 μg/ml",1.019
same,Toxicity Percent,"Table 3 Unwashed, 500 μg/ml",2.30%
same,Toxicity Score,"Table 3 Unwashed, 500 μg/ml",0 (0-5% toxicity=0)
same,Tox. O.D.,"Table 3 Unwashed, 1000 μg/ml",.963
same,Toxicity Percent,"Table 3 Unwashed, 1000 μg/ml",7.67%
same,Toxicity Score,"Table 3 Unwashed, 1000 μg/ml",1 (6-25% toxicity=1)
same,Tox. O.D.,"Table 3 Unwashed, 2000 μg/ml",1.061
same,Toxicity Percent,"Table 3 Unwashed, 2000 μg/ml",-1.73%
same,Toxicity Score,"Table 3 Unwashed, 2000 μg/ml",0 (0-5% toxicity=0)
same,Tox. O.D.,[2],1.121
same,Toxicity Percent,[2],-7.68%
same,Toxicity Score,[2],0 (0-5% toxicity=0)
same,Tox. O.D.,[3],1.019
same,Toxicity Percent,[3],2.16%
same,Toxicity Score,[3],0 (0-5% toxicity=0)
same,Tox. O.D.,[4],.963
same,Toxicity Percent,[4],7.54%
same,Toxicity Score,[4],1 (6-25% toxicity=1)
same,Tox. O.D.,[5],1.061
same,Toxicity Percent,[5],-1.87%
same,Toxicity Score,[5],0 (0-5% toxicity=0)
same,Tox. O.D.,[6],.962
same,Toxicity Percent,[6],16.17%
same,Toxicity Score,[6],1 (6-25% toxicity=1)
same,Tox. O.D.,[7],.878
same,Toxicity Percent,[7],23.49%
same,Toxicity Score,[7],1 (6-25% toxicity=1)
same,Tox. O.D.,[8],.923
same,Toxicity Percent,[8],19.56%
same,Toxicity Score,[8],1 (6-25% toxicity=1)
same,Tox. O.D.,[9],.871
same,Toxicity Percent,[9],24.05%
same,Toxicity Score,[9],1 (6-25% toxicity=1)
same,Tox. O.D.,[10],.850
same,Toxicity Percent,[10],25.93%
same,Toxicity Score,[10],1 (6-25% toxicity=1)
same,Tox. O.D.,"Table 6, 2 mg/ml",1.273
same,Toxicity Percent,"Table 6, 2 mg/ml",22.74%
same,Toxicity Score,"Table 6, 2 mg/ml",1 (6-25% toxicity=1)
"C=C(NC(=O)C(=C)NC(=O)c1csc(C2=N[C@@H]3c4csc(n4)[C@H]4NC(=O)c5csc(n5)[C@H]([C@](C)(O)[C@@H](C)O)NC(=O)[C@H]5CSC(=N5)/C(=C/C)NC(=O)[C@H]([C@@H](C)O)NC(=O)c5csc(n5)[C@]3(CC2)NC(=O)[C@H](C)NC(=O)C(=C)NC(=O)[C@H](C)NC(=O)[C@H]([C@@H](C)CC)N[C@@H]2C=Cc3c([C@H](C)O)cc(nc3[C@H]2O)C(=O)O[C@@H]4C)n1)C(N)=O [Thiostrepton, thiostrepton]",Tox. O.D.,"Table 1, 1 μg/ml",.941
same,Toxicity Percent,"Table 1, 1 μg/ml",14.50%
same,Toxicity Score,"Table 1, 1 μg/ml",1 (6-25% toxicity=1)
same,Tox. O.D.,"Table 1, 10 μg/ml",.991
same,Toxicity Percent,"Table 1, 10 μg/ml",9.95%
same,Toxicity Score,"Table 1, 10 μg/ml",1 (6-25% toxicity=1)
same,Tox. O.D.,"Table 1, 100 μg/ml",.994
same,Toxicity Percent,"Table 1, 100 μg/ml",9.64%
same,Toxicity Score,"Table 1, 100 μg/ml",1 (6-25% toxicity=1)
same,Tox. O.D.,"Table 1, .1 μg/ml",.912
same,Toxicity Percent,"Table 1, .1 μg/ml",17.14%
same,Toxicity Score,"Table 1, .1 μg/ml",1 (6-25% toxicity=1)
same,Tox. O.D.,"Table 2, 100 μg/ml",.915
same,Toxicity Percent,"Table 2, 100 μg/ml",9.14%
same,Toxicity Score,"Table 2, 100 μg/ml",1 (6-25% toxicity=1)
same,Tox. O.D.,"Table 2, 200 μg/ml",.820
same,Toxicity Percent,"Table 2, 200 μg/ml",18.62%
same,Toxicity Score,"Table 2, 200 μg/ml",1 (6-25% toxicity=1)
same,Tox. O.D.,"Table 2, 400 μg/ml",.799
same,Toxicity Percent,"Table 2, 400 μg/ml",20.71%
same,Toxicity Score,"Table 2, 400 μg/ml",1 (6-25% toxicity=1)
same,Tox. O.D.,"Table 2, 800 μg/ml",.676
same,Toxicity Percent,"Table 2, 800 μg/ml",32.87%
same,Toxicity Score,"Table 2, 800 μg/ml",2 (26-50% toxicity=2)
same,Tox. O.D.,"Table 3 Unwashed, 100 μg/ml",.969
same,Toxicity Percent,"Table 3 Unwashed, 100 μg/ml",7.10%
same,Toxicity Score,"Table 3 Unwashed, 100 μg/ml",1 (6-25% toxicity=1)
same,Tox. O.D.,"Table 3 Unwashed, 200 μg/ml",.827
same,Toxicity Percent,"Table 3 Unwashed, 200 μg/ml",20.67%
same,Toxicity Score,"Table 3 Unwashed, 200 μg/ml",1 (6-25% toxicity=1)
same,Tox. O.D.,"Table 3 Unwashed, 400 μg/ml",.788
same,Toxicity Percent,"Table 3 Unwashed, 400 μg/ml",24.41%
same,Toxicity Score,"Table 3 Unwashed, 400 μg/ml",1 (6-25% toxicity=1)
same,Tox. O.D.,"Table 3 Unwashed, 800 μg/ml",.739
same,Toxicity Percent,"Table 3 Unwashed, 800 μg/ml",29.11%
same,Toxicity Score,"Table 3 Unwashed, 800 μg/ml",2 (26-50% toxicity=2)
same,Tox. O.D.,[11],.969
same,Toxicity Percent,[11],6.96%
same,Toxicity Score,[11],1 (6-25% toxicity=1)
same,Tox. O.D.,[12],.827
same,Toxicity Percent,[12],20.56%
same,Toxicity Score,[12],1 (6-25% toxicity=1)
same,Tox. O.D.,[13],.788
same,Toxicity Percent,[13],24.30%
same,Toxicity Score,[13],1 (6-25% toxicity=1)
same,Tox. O.D.,[14],.739
same,Toxicity Percent,[14],29.01%
same,Toxicity Score,[14],2 (26-50% toxicity=2)
same,Tox. O.D.,[15],.783
same,Toxicity Percent,[15],22.91%
same,Toxicity Score,[15],1 (6-25% toxicity=1)
same,Tox. O.D.,[16],.577
same,Toxicity Percent,[16],43.15%
same,Toxicity Score,[16],2 (26-50% toxicity=2)
same,Tox. O.D.,[17],.638
same,Toxicity Percent,[17],37.14%
same,Toxicity Score,[17],2 (26-50% toxicity=2)
same,Tox. O.D.,[18],.786
same,Toxicity Percent,[18],22.56%
same,Toxicity Score,[18],1 (6-25% toxicity=1)
same,Tox. O.D.,[19],.749
same,Toxicity Percent,[19],26.26%
same,Toxicity Score,[19],2 (26-50% toxicity=2)
same,Tox. O.D.,"Table 6, 100 μg/ml",1.348
same,Toxicity Percent,"Table 6, 100 μg/ml",18.15%
same,Toxicity Score,"Table 6, 100 μg/ml",1 (6-25% toxicity=1)
same,Tox. O.D.,"Table 6, 200 μg/ml",1.324
same,Toxicity Percent,"Table 6, 200 μg/ml",19.61%
same,Toxicity Score,"Table 6, 200 μg/ml",1 (6-25% toxicity=1)
same,Tox. O.D.,"Table 6, 400 μg/ml",1.146
same,Toxicity Percent,"Table 6, 400 μg/ml",30.45%
same,Toxicity Score,"Table 6, 400 μg/ml",2 (26-50% toxicity=2)
same,Tox. O.D.,"Table 6, 800 μg/ml",.890
same,Toxicity Percent,"Table 6, 800 μg/ml",45.96%
same,Toxicity Score,"Table 6, 800 μg/ml",2 (26-50% toxicity=2)
same,toxicity to cells,"in vitro, summary statement",little toxicity to cells
